{"source": "patent US20120010075A1", "about": "(priority 2009, published 2012)", "key": {"Phytophthora infestans": {"test_system": "Phytophthora infestans", "assay_type": "in vivo, Phytophthora infestans on tomato (Outdoor Girl)"}, "[1]": {"test_system": "Leptosphaeria nodorum (LEPTNO)", "test": "Isolated metal-hydrazone complexes versus parent hydrazones, in vitro, Leptosphaeria nodorum (Example 31, Table 7)", "assay_type": "cell-based", "conditions": "Parastagonospora nodorum; 0.1 μg/mL; copper-minus medium; 72 h"}, "[2]": {"test_system": "Septoria tritici isolate USA-184", "test": "In vitro fungitoxicity of hydrazones with and without copper towards Septoria tritici (Example 30, Table 5)", "assay_type": "cell-based", "conditions": "Zymoseptoria tritici, 0.05 μg/mL"}, "Ustilago maydis": {"test_system": "Ustilago maydis", "test": "In vitro fungitoxicity of hydrazones with and without copper towards Ustilago maydis (Example 29, Table 4)", "assay_type": "cell-based", "conditions": "1 μg/mL, 48 h"}, "Phytophthora capsici": {"test_system": "Phytophthora capsici", "test": "Fungitoxicity of copper-hydrazone mixtures of different ratios towards Phytophthora capsici (Example 36, Table 12)", "assay_type": "cell-based", "conditions": "Phytophthora capsici", "protocol": "In vitro fungitoxicity assays against Phytophthora capsici were conducted using the copper-minus AS medium described in Example 28. Mixtures containing hydrazone compound 16 at 200 nM and CuCl2.2H2O at 0.2 μM (1:1 molar ratio), 0.8 μM (1:4 ratio), 3.2 μM (1:16 ratio), 12.5 μM (1:62.5 ratio), 50 μM (1:200 ratio) and 200 μM (1:1000 ratio) were prepared in copper-minus AS medium. Two-fold dilution series of these mixtures were then prepared in 100 μL aliquots of copper-minus AS medium in flat-bottomed 96-well microtiter plates. A suspension of P. capsici zoospores in Chelex-treated water at 5×10^4 spores per mL was prepared as in Example 28. Microtiter plates were inoculated with 100 μL of the spore suspension and incubated at 25° C. for 48 h before assessing fungal growth by measuring light scattering in a NepheloStar plate reader.\n(§1) Growth inhibition was determined by comparing growth in the presence of copper-hydrazone mixture with growth in control wells lacking the copper-hydrazone mixture. EC50 values were calculated from dose-response curves, and are expressed as the amounts of hydrazone or copper in each test mixture at the rates providing 50% inhibition of growth as compared to a control lacking the copper-hydrazone mixture."}, "[3]": {"test_system": "Leptosphaeria nodorum (glume blotch of wheat)", "test": "Cu-hydrazone complexes versus parent hydrazones against glume blotch of wheat (Example 32, Table 8)", "assay_type": "in vivo, Leptosphaeria nodorum on wheat (cultivar Yuma)", "conditions": "Parastagonospora nodorum, 200 ppm spray, inoculated after 24 h"}, "[4]": {"test_system": "Leptosphaeria nodorum (LEPTNO)", "test": "Fungitoxicity of copper-hydrazone mixtures of different ratios towards Leptosphaeria nodorum (Example 35, Table 11)", "assay_type": "cell-based", "conditions": "Parastagonospora nodorum", "protocol": "In vitro fungitoxicity assays against LEPTNO were conducted using the copper-minus medium described in Example 26. Mixtures containing hydrazone compound 16 at 200 nM and CuCl2 at 0.2 μM (1:1 molar ratio), 0.8 μM (1:4 ratio), 12.5 μM (1:62.5 ratio) and 200 μM (1:1000 ratio) were prepared in copper-minus medium. Two-fold dilution series of these mixtures were then prepared in 100 μL aliquots of copper-minus medium in flat-bottomed 96-well microtiter plates. A suspension of LEPTNO spores in copper-minus medium at 2×10^5 spores per mL was prepared as in Example 26. Microtiter plates were inoculated with 100 μL of the spore suspension and the plates were incubated at 25° C. for 72 h before assessing fungal growth by measuring light scattering in a NepheloStar plate reader.\nas §1"}, "[5]": {"conditions": "hydrazone 200 μM + CuSO4 200 μM"}, "[6]": {"conditions": "hydrazone 200 μM + CuSO4 400 μM"}, "[7]": {"conditions": "hydrazone 200 μM + CuSO4 800 μM"}, "[8]": {"conditions": "hydrazone 400 μM + CuCl2 200 μM"}, "[9]": {"conditions": "hydrazone 400 μM + CuCl2 400 μM"}, "[10]": {"conditions": "hydrazone 400 μM + CuCl2 800 μM"}, "[11]": {"conditions": "hydrazone 400 μM + CuSO4 200 μM"}, "[12]": {"conditions": "hydrazone 400 μM + CuSO4 400 μM"}, "[13]": {"conditions": "hydrazone 400 μM + CuSO4 800 μM"}, "[14]": {"conditions": "Hydrazone without CuCl2, read-out: Hydrazone EC50"}, "[15]": {"conditions": "Hydrazone:Cu ratio 1 to 1, read-out: Hydrazone EC50 (amount of hydrazone in mixture at EC50)"}, "[16]": {"conditions": "Hydrazone:Cu ratio 1 to 4, read-out: Hydrazone EC50 (amount of hydrazone in mixture at EC50)"}, "[17]": {"conditions": "Hydrazone:Cu ratio 1 to 62.5, read-out: Hydrazone EC50 (amount of hydrazone in mixture at EC50)"}, "[18]": {"conditions": "Hydrazone:Cu ratio 1 to 1000, read-out: Hydrazone EC50 (amount of hydrazone in mixture at EC50)"}}, "note": "Read-outs that look alike come from different tables or passages of the source.", "data": [{"compound": "O=C(N/N=C/c1cc(Cl)cc(Cl)c1O)c1ccccc1", "note": "[Example 16]", "values": [{"measurement": "% Control of Tomato Late Blight, predicted (in brackets, Colby)", "setting": "Phytophthora infestans; hydrazone 200 μM + CuCl2 800 μM", "result": 76.6, "unit": "%"}, {"measurement": "% Control of Tomato Late Blight", "setting": "Phytophthora infestans; hydrazone 200 μM + CuSO4 10 μM", "result": 78.0, "unit": "%"}, {"measurement": "% Control of Tomato Late Blight, predicted (in brackets, Colby)", "setting": "Phytophthora infestans; hydrazone 200 μM + CuSO4 10 μM", "result": 22.7, "unit": "%"}, {"measurement": "% Control of Tomato Late Blight", "setting": "Phytophthora infestans; hydrazone 200 μM + CuSO4 50 μM", "result": 81.3, "unit": "%"}, {"measurement": "% Control of Tomato Late Blight, predicted (in brackets, Colby)", "setting": "Phytophthora infestans; hydrazone 200 μM + CuSO4 50 μM", "result": 25.1, "unit": "%"}, {"measurement": "% Control of Tomato Late Blight", "setting": "Phytophthora infestans; [5]", "result": 93.2, "unit": "%"}, {"measurement": "% Control of Tomato Late Blight, predicted (in brackets, Colby)", "setting": "Phytophthora infestans; [5]", "result": 60.4, "unit": "%"}, {"measurement": "% Control of Tomato Late Blight", "setting": "Phytophthora infestans; [6]", "result": 95.8, "unit": "%"}, {"measurement": "% Control of Tomato Late Blight, predicted (in brackets, Colby)", "setting": "Phytophthora infestans; [6]", "result": 81.2, "unit": "%"}, {"measurement": "% Control of Tomato Late Blight", "setting": "Phytophthora infestans; [7]", "result": 97.5, "unit": "%"}, {"measurement": "% Control of Tomato Late Blight, predicted (in brackets, Colby)", "setting": "Phytophthora infestans; [7]", "result": 86.5, "unit": "%"}, {"measurement": "% Control of Tomato Late Blight", "setting": "Phytophthora infestans; hydrazone 200 μM alone, no copper", "result": 21.4, "unit": "%"}, {"measurement": "% Control of Tomato Late Blight", "setting": "Phytophthora infestans; hydrazone 400 μM + CuCl2 10 μM", "result": 64.4, "unit": "%"}, {"measurement": "% Control of Tomato Late Blight, predicted (in brackets, Colby)", "setting": "Phytophthora infestans; hydrazone 400 μM + CuCl2 10 μM", "result": 26.9, "unit": "%"}, {"measurement": "% Control of Tomato Late Blight", "setting": "Phytophthora infestans; hydrazone 400 μM + CuCl2 50 μM", "result": 91.7, "unit": "%"}, {"measurement": "% Control of Tomato Late Blight, predicted (in brackets, Colby)", "setting": "Phytophthora infestans; hydrazone 400 μM + CuCl2 50 μM", "result": 32.0, "unit": "%"}, {"measurement": "% Control of Tomato Late Blight", "setting": "Phytophthora infestans; [8]", "result": 91.7, "unit": "%"}, {"measurement": "% Control of Tomato Late Blight, predicted (in brackets, Colby)", "setting": "Phytophthora infestans; [8]", "result": 54.1, "unit": "%"}, {"measurement": "% Control of Tomato Late Blight", "setting": "Phytophthora infestans; [9]", "result": 99.8, "unit": "%"}, {"measurement": "% Control of Tomato Late Blight, predicted (in brackets, Colby)", "setting": "Phytophthora infestans; [9]", "result": 67.3, "unit": "%"}, {"measurement": "% Control of Tomato Late Blight", "setting": "Phytophthora infestans; [10]", "result": 100.0, "unit": "%"}, {"measurement": "% Control of Tomato Late Blight, predicted (in brackets, Colby)", "setting": "Phytophthora infestans; [10]", "result": 77.9, "unit": "%"}, {"measurement": "% Control of Tomato Late Blight", "setting": "Phytophthora infestans; hydrazone 400 μM + CuSO4 10 μM", "result": 41.5, "unit": "%"}, {"measurement": "% Control of Tomato Late Blight, predicted (in brackets, Colby)", "setting": "Phytophthora infestans; hydrazone 400 μM + CuSO4 10 μM", "result": 26.9, "unit": "%"}, {"measurement": "% Control of Tomato Late Blight", "setting": "Phytophthora infestans; hydrazone 400 μM + CuSO4 50 μM", "result": 54.5, "unit": "%"}, {"measurement": "% Control of Tomato Late Blight, predicted (in brackets, Colby)", "setting": "Phytophthora infestans; hydrazone 400 μM + CuSO4 50 μM", "result": 29.2, "unit": "%"}, {"measurement": "% Control of Tomato Late Blight", "setting": "Phytophthora infestans; [11]", "result": 87.2, "unit": "%"}, {"measurement": "% Control of Tomato Late Blight, predicted (in brackets, Colby)", "setting": "Phytophthora infestans; [11]", "result": 62.6, "unit": "%"}, {"measurement": "% Control of Tomato Late Blight", "setting": "Phytophthora infestans; [12]", "result": 96.6, "unit": "%"}, {"measurement": "% Control of Tomato Late Blight, predicted (in brackets, Colby)", "setting": "Phytophthora infestans; [12]", "result": 82.2, "unit": "%"}, {"measurement": "% Control of Tomato Late Blight", "setting": "Phytophthora infestans; [13]", "result": 98.3, "unit": "%"}, {"measurement": "% Control of Tomato Late Blight, predicted (in brackets, Colby)", "setting": "Phytophthora infestans; [13]", "result": 87.3, "unit": "%"}, {"measurement": "% Control of Tomato Late Blight", "setting": "Phytophthora infestans; hydrazone 400 μM alone, no copper", "result": 25.7, "unit": "%"}, {"measurement": "inhibition at 0.1 µg/mL", "setting": "[1]", "result": 19.9, "unit": "%"}, {"measurement": "inhibition at 0.05 µg/mL", "setting": "[2]; Colby formula, CuCl2, read-out: % Inhibition Plus copper Predicted", "result": 35.8, "unit": "%"}, {"measurement": "inhibition at 0.05 µg/mL", "setting": "[2]; copper-minus medium, 90 h, read-out: % Inhibition Minus copper Observed", "result": 35.8, "unit": "%"}, {"measurement": "inhibition at 0.05 µg/mL", "setting": "[2]; copper-plus medium CuCl2, 90 h, read-out: % Inhibition Plus copper Observed", "result": 93.6, "unit": "%"}, {"measurement": "% Inhn. Plus copper Observed", "setting": "Ustilago maydis; copper-plus medium (CuCl2, 10 μM)", "result": 80.0, "unit": "%"}, {"measurement": "inhibition of growth at 1 µg/mL", "setting": "Ustilago maydis; Mycosarcoma maydis, copper-minus medium, read-out: % Inhn. Minus copper Observed", "result": 0, "unit": "%"}, {"measurement": "EC50", "setting": "Phytophthora capsici; [14]", "result": 143, "unit": "nM"}, {"measurement": "EC50", "setting": "Phytophthora capsici; [15]", "result": 71.1, "unit": "nM"}, {"measurement": "EC50", "setting": "Phytophthora capsici; [16]", "result": 47.1, "unit": "nM"}, {"measurement": "EC50", "setting": "Phytophthora capsici; Hydrazone:Cu ratio 1 to 16, read-out: Hydrazone EC50 (amount of hydrazone in mixture at EC50)", "result": 27.5, "unit": "nM"}, {"measurement": "EC50", "setting": "Phytophthora capsici; [17]", "result": 16.6, "unit": "nM"}, {"measurement": "EC50", "setting": "Phytophthora capsici; Hydrazone:Cu ratio 1 to 250, read-out: Hydrazone EC50 (amount of hydrazone in mixture at EC50)", "result": 7.6, "unit": "nM"}, {"measurement": "EC50", "setting": "Phytophthora capsici; [18]", "result": 4.6, "unit": "nM"}, {"measurement": "pest or weed control at 200 ppm", "setting": "[3]", "result": 41, "unit": "%"}, {"measurement": "EC50", "setting": "[4]; [14]", "result": "> 3200", "unit": "nM"}, {"measurement": "EC50", "setting": "[4]; [15]", "result": 72.2, "unit": "nM"}, {"measurement": "EC50", "setting": "[4]; [16]", "result": 43, "unit": "nM"}, {"measurement": "EC50", "setting": "[4]; [17]", "result": 28.4, "unit": "nM"}, {"measurement": "EC50", "setting": "[4]; [18]", "result": 14, "unit": "nM"}]}]}
